In article PMC8399565, “Fluorescence Cross-Correlation Spectroscopy Yields True Affinity and Binding Kinetics of Plasmodium Lactate Transport Inhibitors” (Pharmaceuticals, 2021):
pEC50, pIC50, pKi: −log10 of the molar value. “Also recorded” adds a separate entry of the source.

Tests used:
[1] = system: resistant parasites that carried a single PfFNT G107S point mutation; design: method as in PMID 23798988; conditions: cited from earlier work
[2] = system: Plasmodium falciparum 3D7 parasites; design: method as in PMID 23798988; conditions: in vitro; cited from earlier work
PfFNT G107S = system: PfFNT G107S; design: method as in PMID 23798988; conditions: PfFNT G107S point mutation; cited from earlier work
PfFNT = conditions: cited from earlier work; for pIC50: PfFNT expressed in Saccharomyces cerevisiae yeast
PfFNT-GFP = target: T1, PfFNT-GFP (Plasmodium falciparum, UniProt O77389); test: FCCS loss of signal screening competition assay; format: binding
T1 construct: The DNA of full-length PfFNT from Plasmodium falciparum 3D7 was cloned as a C-terminal GFP fusion; expressed in transfected cells; intact cells for imaging, LMNG-solubilized membranes or lysates for FCCS
Method: With a loss of signal screening assay using the GFP fusion of PfFNT wildtype and BH296-DY647 as the interaction pair, we set out to test the FCCS approach on a selection of 26 compounds that were validated before using functional lactate transport assays in yeast. In more detail, HEK cell lysates were adjusted to a PfFNT-GFP concentration of 4 nM and mixed with fluorescence-labeled BH296-DY647 at a final concentration of 80 nM, approximating the previously determined KD-value of this interaction. A total of 20 µL of the mix was then dispensed into the wells of a glass-bottom 384 microtiter plate. […] The wells were then analyzed by FCCS, Ki values were determined, and compared by a scatter plot to the IC50 values from the previous functional assays in yeast (Figure 6). […]
FCCS measurements were conducted in 384-well glass-bottom plates (cat. no PS96B-G175, SWISSCI, Switzerland) using an Insight plate reader (Evotec Technologies, Germany) fitted with a U-Apo300 40x water immersion lens, NA 1.15 (Olympus, Japan). […] Fluorescence fluctuations were recorded for 8 s with 12 repetitions and analyzed afterward using FCS+plus Analyze 1.1P (Evotec technologies, Version 1.2.5g). […] All KD and IC50 values, as well as kinetic parameters, were determined from three independently repeated experiments. […]

T1 sequence (O77389 whole entry, the tested form may be a part): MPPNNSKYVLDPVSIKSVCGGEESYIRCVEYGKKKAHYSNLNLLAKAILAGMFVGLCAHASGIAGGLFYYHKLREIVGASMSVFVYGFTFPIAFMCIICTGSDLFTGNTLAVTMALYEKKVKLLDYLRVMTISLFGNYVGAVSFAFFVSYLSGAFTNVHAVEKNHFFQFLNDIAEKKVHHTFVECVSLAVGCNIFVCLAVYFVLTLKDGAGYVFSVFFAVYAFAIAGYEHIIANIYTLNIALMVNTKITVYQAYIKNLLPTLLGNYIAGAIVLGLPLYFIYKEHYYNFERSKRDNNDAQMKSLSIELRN

Structure (SMILES) | pEC50 [1] | pEC50 [2] | pIC50 (PfFNT G107S) | pIC50 (PfFNT) | pKi (PfFNT-GFP) | Ki (affinity) from FCCS competition screen (PfFNT-GFP; 4 nM PfFNT-GFP, 80 nM BH296-DY647, 1 h room temperature) | activity in functional yeast lactate transport assay (PfFNT; validated before)
COc1ccc2c(c1)OC(O)(C(F)(F)C(F)(F)F)CC2=O (stereo not drawn) [MMV007839] | 4.46 | 6.85 | 4.68 | 6.77 |  |  | 
O=C(/C=C(\O)C(F)(F)C(F)(F)F)c1ccc(C(=O)/C=C(\O)C(F)(F)C(F)(F)F)cc1 [BH454] |  |  |  |  | > 7.00 | double-digit nanomolar range | little activity; also recorded: not very effective
O=C1CC(O)(C(F)(F)C(F)(F)F)Oc2ccccc21 (stereo not drawn) [MMV000972, reference compound] |  | 5.77 |  | 6.77 |  |  | 
